In PubChem BioAssay (NCI):
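Values below derive from 48-hour exposures of cells grown in 96-well plates, with endpoints linearly interpolated between the two concentrations bracketing the appropriate inhibition level. TGI: concentration producing complete growth inhibition.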 Where a SMILES comes first, the peptide text is derived from it. The star is where a group is joined. Cbz = O=C(OCc1ccccc1)*; Boc = CC(C)(C)OC(=O)*; OSu = O=C1CCC(=O)N1O*; Bn = c1ccc(C*)cc1

Experiments:
Test in all cases: DTP human tumour cell line panel, 48 h
M14 melanoma = tested on: M14 melanoma
KM12 colon = tested on: KM12 colon
ACHN renal = tested on: ACHN renal
HOP-92 NSCLC = tested on: HOP-92 NSCLC
786-0 renal = tested on: 786-0 renal
SK-MEL-2 melanoma = tested on: SK-MEL-2 melanoma
SK-MEL-5 melanoma = tested on: SK-MEL-5 melanoma
CAKI-1 renal = tested on: CAKI-1 renal
BT-549 breast = tested on: BT-549 breast
SR leukemia = tested on: SR leukemia
EKVX NSCLC = tested on: EKVX NSCLC
OVCAR-8 ovarian = tested on: OVCAR-8 ovarian
MDA-N = tested on: MDA-N

SMILES	TGI (M14 melanoma) [µM]	TGI (KM12 colon) [µM]	TGI (ACHN renal) [µM]	TGI (HOP-92 NSCLC) [µM]	TGI (786-0 renal) [µM]	TGI (SK-MEL-2 melanoma) [µM]	TGI (SK-MEL-5 melanoma) [µM]	TGI (CAKI-1 renal) [µM]	TGI (BT-549 breast) [µM]	TGI (SR leukemia) [µM]	TGI (EKVX NSCLC) [µM]	TGI (OVCAR-8 ovarian) [µM]	TGI (MDA-N) [µM]
Nc1cc(N2CCCC2)nc(=O)n1-c1ccccc1	> 100	> 100	> 100	> 100	> 100	> 100	> 100	> 100	> 100	> 100	> 100	> 100	
O=C(CSc1nc2[nH]ncc2c(=O)[nH]1)c1ccc(Cl)cc1	> 100	> 100	> 100		> 100	> 100	> 100	> 100	> 100	> 100	> 100	> 100	> 100
CN(C)CCN=C1Nc2ccccc2C(=S)N2CSCC12 (stereo not given)	> 100	> 100	> 100		> 100	> 100	> 100	> 100	> 100	> 100	> 100	> 100	> 100
c1cc2c(c(NC3=NCCO3)c1)CCC2	> 100	> 100	> 100	> 100	> 100	> 100	> 100	> 100		> 100	> 100	> 100	> 100
N#Cc1c(N)[nH]c(=S)c(C#N)c1-c1ccccc1		> 100	> 100		> 100	> 100	> 100	> 100	> 100	> 100	> 100	> 100	> 100
CC(C)(C)Nc1noc(=O)n1C(C)(C)C	> 100	> 100	> 100	> 100	> 100	> 100	> 100	> 100		> 100	> 100	> 100	> 100
O=C1NC(=O)C2(CCCCCC2)N1	> 100	> 100	> 100	> 100	> 100	> 100	> 100	> 100	> 100		> 100	> 100	> 100
Clc1cc(Cl)cc(C2ON=C(c3ccccc3)N2C23CC4CC(CC(C4)C2)C3)c1 (stereo not given)	> 10	> 10	> 10	> 10	> 10	> 10	> 10	> 10	> 10		> 10	> 10	> 10
CC(=O)Nc1ccc2[nH]c(-c3cccc(Cl)c3)cc(=O)c2c1	> 100	> 100	> 100	> 100	> 100		> 100		> 100	> 100	> 100	> 100	
CCCCC(Sc1cc(Cl)c(C)cc1S(=O)(=O)Nc1n[nH]c(N)n1)C(=O)OC (stereo not given)	> 10	> 10	> 10		> 10	> 10	> 10	> 10	> 10		> 10	> 10	> 10
CC(=O)NC1=C(NCCN(C)C)C(=O)c2ccccc2C1=O	> 50	> 50	> 50		> 50	> 50	14.1			> 50	> 50	31.6	
CO[C@@H]1C=C[C@@]23c4cc5c(cc4C(=O)O[C@H]2CN(C)[C@H]3C1)OCO5	> 100	> 100	> 100	> 100	> 100	> 100	> 100			> 100	> 100	> 100	
O=C(O)CCc1ccc2c(c1)C(=O)CC2	> 100	> 100	> 100		> 100	> 100	> 100		> 100	> 100	> 100	> 100	> 100
COc1ccc(OCc2ccc3nc(-c4ccccc4)c(Cl)nc3c2)cc1	> 100	> 100	> 100	46.7	32.6	> 100	25.8	51.4		> 100	> 100	> 100	> 100
c1ccc([P+](Cc2ccccc2C[P+](c2ccccc2)(c2ccccc2)c2ccccc2)(c2ccccc2)c2ccccc2)cc1	> 100	> 100	> 100		> 100	> 100	> 100	> 100	> 100			> 100	> 100
Oc1ccc(N=C2CCC(=C(c3ccccc3)c3ccc(Nc4ccc(O)cc4)cc3)CC2)cc1	> 100	> 100	> 100	> 100	> 100	> 100	> 100	> 100		> 100		> 100	
CC1(C)C(O)C[C@@H](O)[C@@]2(C)C1CC[C@]1(C)C2C[C@@H](O)[C@@H]2C([C@@]3(C)CC[C@@H](C(C)(C)O)O3)CCC21C (stereo not given in full)	27.7	30.6	35.8	23.5	30.1	28.9	22.6	42.1		> 100	53.9	36.6	
CC(NC(=O)C(N)CC(=O)O)NC(=O)C1CCC1 (stereo not given)	> 100	> 100	> 100		> 100	> 100	> 100	> 100	> 100		> 100	> 100	> 100
C=C(C)[C@@]1(OC(=O)c2cc([N+](=O)[O-])cc([N+](=O)[O-])c2)C[C@@H]2CCCC[C@@H]21	> 100	> 100	> 100		> 100	> 100		> 100	> 100	> 100	> 100	> 100	> 100
CC(=O)OC1CCCn2c1nc1c2C(=O)C(C)=C(N2CC2)C1=O (stereo not given)	0.337	1.24	1.25	54.6	1.65	0.693	0.351	0.687		> 100	1.9	1.37	

SMILES	TGI (M14 melanoma) [µM]	TGI (KM12 colon) [µM]	TGI (ACHN renal) [µM]	TGI (HOP-92 NSCLC) [µM]	TGI (786-0 renal) [µM]	TGI (SK-MEL-2 melanoma) [µM]	TGI (SK-MEL-5 melanoma) [µM]	TGI (CAKI-1 renal) [µM]	TGI (BT-549 breast) [µM]	TGI (SR leukemia) [µM]	TGI (EKVX NSCLC) [µM]	TGI (OVCAR-8 ovarian) [µM]	TGI (MDA-N) [µM]
CCOC(=O)[C@@]12C3C=CC(CC3)[C@]1(C(=O)c1ccccc1)C(=O)C(=O)N2c1ccccc1 (stereo not given in full)	> 100	> 100	> 100	> 100	> 100	> 100	> 100	> 100		> 100		> 100	> 100
CN(N)c1cc(=O)[nH]c(=O)[nH]1		> 100	> 100		> 100		> 100	> 100	50.6	> 100	> 100	> 100	> 100
c1ccc(-n2nc3ccc4nonc4c3n2)cc1	> 100	> 100	> 100	> 100	> 100	> 100	> 100	> 100		> 100	> 100	> 100	> 100
O=C(O)c1ccc(NC(NC(=O)C(C(F)(F)F)C(F)(F)F)(C(F)(F)F)C(F)(F)F)cc1	> 100		> 100		> 100	> 100	> 100	> 100	> 100	> 100	> 100	> 100	> 100
CN(C)S(=O)(=O)/N=C/c1cccc(/C=N/S(=O)(=O)N(C)C)c1	> 100	> 100	> 100	> 100	> 100		> 100	> 100	> 100		> 100	> 100	> 100
CC(=O)O[C@H]1/C(=C/c2ccncc2)C[C@H]2[C@@H]3CC=C4C[C@@H](N5CCCC5)CC[C@]4(C)[C@H]3CC[C@]12C	23.8	26.2	27.7	19.8	10.3	32.1	21.1	27.9	35.8	21.6	29	28.2	
O=C(N=Nc1cccc(Cl)c1)NNc1cccc(Cl)c1	32.2		50.8		28.4	24.6	38.4	91.1		90.7		50.1	31.2
COCCCNC(=O)C1=C(C)NC(C)=C(C(=O)NCCCOC)C1	> 100	> 100	> 100	> 100	> 100	> 100	> 100	> 100		> 100	40.5	> 100	> 100
O=C(O)c1cc(/C=C/c2cc(O)ccc2O)ccc1O	> 10		> 10		> 10	> 10			> 10	> 10	> 10	> 10	> 10
CC(C)(C)OC(=O)NCCc1cccc2c1oc1c(CCC(=O)O)cccc12	> 100	> 100	> 100	> 100	> 100	> 100	> 100	> 100		> 100		> 100	
CC(SC(=S)N1CCOCC1)C(=O)Nc1nnc(-c2ccccc2)o1 (stereo not given)	> 100	> 100	> 100		> 100	> 100	> 100	> 100	> 100	> 100	> 100	> 100	> 100
Cc1nnc2sc(NN)nn12	> 100	> 100	> 100		> 100	> 100	> 100	> 100	> 100		> 100	> 100	> 100
C=C[C@@H]1C[C@]2(C(=O)OC)Cc3nc4ccccc4nc3CC(C(=O)OC)=C2O1	> 100	> 100	> 100		> 100	> 100	> 100	> 100	> 100		> 100	> 100	> 100
O=P1(Oc2ccccc2)N(CCCl)CCN1c1ccccc1 (stereo not given)	> 100	> 100	> 100	> 100	> 100	> 100	> 100	> 100		> 100	> 100	> 100	> 100
CC1Oc2c(c(=O)oc3ccccc23)[C@@]1(C)CC1C[C@H](C)C(=O)O1 (stereo not given in full)	39.6	> 100	65.8		33.4	> 100	> 100	38.1	71.8		> 100	> 100	45.9
CC(C)(C)OC(=O)NC(Cc1ccc(OCc2ccccc2)cc1)C(=O)NC(CCCCNC(=O)OCc1ccccc1)C(=O)ON1C(=O)CCC1=O (stereo not given) (Boc-Tyr(Bn)-Lys(Cbz)-OSu; configuration not given here)	46.2	65.5	42.6		35.7	33.8	48		43.3	54.9	> 100	51.9	29.9
CCOC(=O)C(C)NC(=O)C(C)NC(=O)C(C)NC(=O)C(C)NC(=O)C(C)NC(=O)OCc1ccccc1 (stereo not given)	> 100	> 100	> 100		> 100	> 100	> 100	> 100	> 100	> 100	> 100	> 100	> 100
Cc1ncc2c(=O)c3c(oc2n1)c1ccccc1n3Cc1ccccc1		> 100	> 100		> 100		> 100	> 100	> 100	> 100	> 100	> 100	> 100
CCc1n[nH]c(=O)n1/N=C/c1ccc(C)cc1		> 100	> 100	> 100	> 100	> 100	> 100	> 100	> 100		> 100	> 100	> 100
